Data on 2 compounds can be found in US20110098242A1, “Methods and Compositions for Diagnosing and Treating Cervical Intraepithelial Neoplasia and Cervical Cancer” (priority 2008, published 2011).

SMILES strings stand for the structures.

What all share (format): cell-based, human
In test [1] the test system is cystatin E/M. In words: Immunofluorescence of cystatin E/M protein in treated SiHa cells. The settings on record: TSA treatment. From the text:
(§1) To verify that cystatin E/M expression was not limited to RNA synthesis and to identify the cellular location of protein expression, immunofluorescence (IF) was used. Cystatin E/M expression was absent in the untreated HeLa cells. […] There was uniform expression in the cytoplasm of all cells. […] Thus, re-expression of the gene by treatment with 5-AzaCdR and TSA in HeLa and SiHa cells, respectively, confirmed promoter methylation and/or histone deacetylation playing a role in the inactivation of cystatin E/M expression in these two cell lines.
(§2) Cells were grown overnight on cover slips to semiconfluency (about 70 to 80%) and treated with 5- AzaCdR or TSA, or transfected with plasmid DNAs. Immunofluorescence was performed using the anti cystatin E/M antibody (R & D Systems, Minneapolis, Minn.) following an established protocol. See LoTempio et al. (2005).

Test [2] deals with cystatin E/M gene. Briefly: RT PCR analysis of cystatin E/M expression in treated SiHa cells.
Test [3] has as its system cystatin E/M gene promoter. Briefly: Sodium bisulfite PCR and sequencing of cystatin E/M promoter CpG methylation in HeLa cells. To be noted: HeLa cells after treatment with 5-AzaCdR. On the procedure:
Having established the promoter activity, four different cell lines and 18 primary tumors were examined for CpG methylation using the sodium bisulfite protocol. Normal endometrium from 16 of the tumors, four different non-involved normal lymphocytes and a lung tissue were used as controls. The analysis was performed using the sequences spanning the −14 to −151 by region of the promoter (NT—033903.7). […] Untreated HeLa cells yielded the 138 by product with the methylation specific PCR. Cell lines Caski, C41, C33A, three of 21 normal tissues (14%) and 7 of 16 tumors (44%) gave the PCR product with both the unmethylation and methylation specific PCRs. Five other tumors (31%) contained only the methlyation specific product. Thus, there was a significant frequency of methylated promoter in the cervical tumors ([…] in tumors versus 3 of 21, 14% in normals, P<0.01, Student's t-test). Methylation in the three normal endometrial tissues could also represent tumor cell contamination. Four of the tumors contained methylation and point mutation (Table 1, FIG. 4A) indicating possible two hits for the functional inactivation of the cystatin E/M gene.
To confirm promoter hypermethylation in the cell lines, sequencing was carried out on the PCR products cloned into the pTOPO plasmid vector. […]

The test system of test [4] is cystatin E/M. Briefly: Immunofluorescence of cystatin E/M protein in treated HeLa cells. The settings on record: 24 hours post-treatment, 5 μM 5-AzaCdR.
Description: as §1, §2

On to `CC(/C=C/C(=O)NO)=C\[C@@H](C)C(=O)c1ccc(N(C)C)cc1` [TSA, Trichostatin A], for which the “cystatin E/M protein expression by immunofluorescence” value in test [1] is on record as “uniform cytoplasmic protein expression”. Also, the “cystatin E/M RNA expression” value in test [2] (TSA 150 μM) is “High level RNA expression”.
Regarding `Nc1ncn([C@H]2C[C@H](O)[C@@H](CO)O2)c(=O)n1` [5-AzaCdR, 5′Aza 2-deoxycytidine], the “cystatin E/M RNA expression” value in test [2] (5 μM and 10 μM 5-AzaCdR) is listed as “did not show expression”; in test [2] (50 μM 5-AzaCdR) it was “low level expression”. The “methylation of C residues in promoter CpG sequences” value in test [3] is recorded as “demethylation of the C residues”. Besides, the “cystatin E/M protein expression by immunofluorescence” value in test [4] is listed as “cystatin E/M expression was observed”.
